Experimental data: patent publication US9447106B2, “Substituted pyrazolo[1,5-a]pyrimidines as bruton's tyrosine kinase modulators” (Beigene, Ltd., priority 2013, dated 2016)
Counter-ions that a name gives are not always drawn. Like-named read-outs stand apart in the source and are kept apart here.

Tests used:
[1] = molecular target: phosphorylated Btk at Tyr223 in Ramos cells (Homo sapiens (Human), UniProt Q06187); experiment: Btk pY223 cellular assay (HTRF) in Ramos cells; type: cell-based; conditions: 1 hour compound incubation, pervanadate or Na3VO4 stimulation
Recombinant Btk = Recombinant Btk (Homo sapiens (Human), UniProt Q06187); experiment: Btk kinase assay (TR-FRET)
[2] = read-out: IC50 (nM) Btk, recombinant Btk, 1 hour pre-incubation, ATP at Km

Recombinant Btk, sequence (Q06187 whole entry): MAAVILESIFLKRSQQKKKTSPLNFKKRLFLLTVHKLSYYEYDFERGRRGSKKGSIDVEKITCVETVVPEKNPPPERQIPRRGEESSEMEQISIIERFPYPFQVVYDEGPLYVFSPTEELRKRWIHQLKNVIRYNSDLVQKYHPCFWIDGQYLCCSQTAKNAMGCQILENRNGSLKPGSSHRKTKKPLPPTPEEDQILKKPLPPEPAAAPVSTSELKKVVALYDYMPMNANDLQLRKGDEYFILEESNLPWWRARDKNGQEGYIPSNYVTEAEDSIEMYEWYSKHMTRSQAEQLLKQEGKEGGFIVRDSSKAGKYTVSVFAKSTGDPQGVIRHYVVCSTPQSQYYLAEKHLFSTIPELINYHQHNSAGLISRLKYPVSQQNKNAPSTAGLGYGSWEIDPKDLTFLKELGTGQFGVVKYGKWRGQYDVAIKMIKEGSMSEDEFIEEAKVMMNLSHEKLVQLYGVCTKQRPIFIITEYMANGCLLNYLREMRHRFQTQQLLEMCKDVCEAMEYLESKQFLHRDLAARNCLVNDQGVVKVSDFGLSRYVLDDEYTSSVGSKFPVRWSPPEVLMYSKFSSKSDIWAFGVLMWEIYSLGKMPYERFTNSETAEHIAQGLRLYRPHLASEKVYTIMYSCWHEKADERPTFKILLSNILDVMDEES
phosphorylated Btk at Tyr223 in Ramos cells, sequence (Q06187 whole entry): as above

Row | Compound | IC50 [1] [nM] | also measured
1 | C=CC(=O)N1CC[C@H]2[C@H](CNc3c(C(N)=O)c(-c4ccc(Oc5ccccc5)cc4)nn32)C1 (relative stereo) [Compound 30, Cis-7-Acryloyl-2-(4-phenoxyphenyl)-4,5,5a,6,7,8,9,9a-octahydro pyrazolo[1,5-a]pyrido[3,4-e]pyrimidine-3-carboxamide and Cis-7-acryloyl-2-(4-phenoxyphenyl)-4,4a,5,6,7,8,8a,9-octahydropyrazolo[1,5-a]pyrido[4,3-d]pyrimidine-3-carboxamide] | 4 | IC50 (Recombinant Btk): 1 nM
2 | CN(C)C/C=C/C(=O)N1CCC(C2CCNc3c(C(N)=O)c(-c4ccc(Oc5ccccc5)cc4)nn32)CC1 (single isomer, unassigned) [Compound 171, (R or S) (E)-7-(1-(4-(Dimethylamino)but-2-enoyl)piperidin-4-yl)-2-(4-phenoxyphenyl)-4,5,6,7-tetrahydropyrazolo-[1,5-a]pyrimidine-3-carboxamide] | 10.9 | IC50 (Recombinant Btk): 1.4 nM
3 | C=CC(=O)Nc1ccccc1C1CCNc2c(C(N)=O)c(-c3ccc(OCc4ccccc4)cc3)nn21 (stereo not drawn) [Compound 10, 7-(2-Acrylamidophenyl)-2-(4-(benzyloxy)phenyl)-4,5,6,7-tetrahydro pyrazolo[1,5-a]pyrimidine-3-carboxamide] | 8 | IC50 (Recombinant Btk; [2]): 1.5 nM
4 | C=CC(=O)N1CC[C@H]2Nc3c(C(N)=O)c(-c4ccc(Oc5ccccc5)cc4)nn3C[C@H]2C1 [Compound 31] |  | IC50 (Recombinant Btk; [2]): 15 nM
5 | C=CC(=O)Nc1ccc2c(c1)CCNc1c(C(N)=O)c(-c3ccc(Oc4ccccc4)cc3)nn1-2 [Compound 72, 8-Acrylamido-2-(4-phenoxyphenyl)-5,6-dihydro-4H-benzo[f]pyrazolo[1,5-a][1,3]diazepine-3-carboxamide] | 10.5 | IC50 (Recombinant Btk; IC50 (nM) Btk, recombinant Btk, 1 hour pre-incubation, ATP at Km): 4.1 nM
6 | C=CC(=O)N1CC(C2(C)CCNc3c(C(N)=O)c(-c4ccc(Oc5ccccc5)cc4)nn32)C1 (stereo not drawn) [Compound 175, 7-(1-Acryloylazetidin-3-yl)-7-methyl-2-(4-phenoxyphenyl)-4,5,6,7-tetrahydropyrazolo-[1,5-a]pyrimidine-3-carboxamide] | 17.6 | 
7 | NC(=O)c1c(-c2ccc(Oc3ccccc3)cc2)nn2c1NCC[C@H]2C1CCN(C(=O)/C=C/CN2CCN(CCNC(=O)CCCC(=O)NCCCOCCOCCOCCCNC(=O)CCCC[C@H]3SC[C@H]4NC(=O)N[C@H]43)CC2)CC1 [Compound 178, N1-(2-(4-((E)-4-(4-((S)-3-carbamoyl-2-(4-phenoxyphenyl)-4,5,6,7-tetrahydropyrazolo[1,5-a]pyrimidin-7-yl)piperidin-1-yl)-4-oxobut-2-en-1-yl)piperazin-1-yl)ethyl)-N5-(15-oxo-19-((3aR,4R,6aS)-2-oxohexahydro-1H-thieno[3,4-d]imidazol-4-yl)-4,7,10-trioxa-14-azanonadecyl)glutaramide trifluoroacetate] | > 1000 | IC50 (Recombinant Btk): 46 nM
8 | NC(=O)c1c(-c2ccc(Oc3ccccc3)cc2)nn2c1NCC[C@H]2C1CCN(C(=O)C#CCN2CCCC2)CC1 [Compound 187, (S)-2-(4-Phenoxyphenyl)-7-(1-(4-(pyrrolidin-1-yl)but-2-ynoyl)piperidin-4-yl)-4,5,6,7-tetrahydropyrazolo-[1,5-a]pyrimidine-3-carboxamide] | 7.3 | 

The next lines start with results.

Row | IC50 [1] [nM] | Compound | also measured
9 | 19.1 | COc1cc(-c2nn3c(c2C(N)=O)NCCC3c2ccccc2NC(=O)/C=C/CN(C)C)ccc1C (stereo not drawn) [Compound 165, (E)-7-(2-(4-(Dimethylamino)but-2-enamido)phenyl)-2-(3-methoxy-4-methylphenyl)-4,5,6,7-tetrahydropyrazolo[1,5-a]pyrimidine-3-carboxamide] | 
10 | 7 | C=CC(=O)Nc1ccccc1C1CCNc2c(C(N)=O)c(-c3cc(Cl)c(OC)c(Cl)c3)nn21 (stereo not drawn) [Compound 169, 7-(2-Acrylamido-phenyl)-2-(3,5-dichloro-4-methoxyphenyl)-4,5,6,7-tetrahydropyrazolo-[1,5-a]pyrimidine-3-carboxamide] | 
11 | 33.7 | NC(=O)c1c(-c2ccc(Oc3ccccc3)cc2)nn2c1NCCC2C1CCN(C(=O)/C=C/CN2CCCCC2)CC1 (stereo not drawn) [Compound 170, (E)-2-(4-Phenoxyphenyl)-7-(1-(4-(piperidin-1-yl)but-2-enoyl)piperidin-4-yl)-4,5,6,7-tetrahydropyrazolo[1,5-a]pyrimidine-3-carboxamide] | 
12 | 3.9 | NC(=O)c1c(-c2ccc(Oc3ccccc3)cc2)nn2c1NCC[C@H]2C1CCN(C(=O)CCCl)CC1 [Compound 177, (S)-7-(1-(3-chloropropanoyl)piperidin-4-yl)-2-(4-phenoxy-phenyl)-4,5,6,7-tetrahydropyrazolo-[1,5-a]pyrimidine-3-carboxamide] | 
13 | 6.7 | CC#CC(=O)N1CC(C2CCNc3c(C(N)=O)c(-c4ccc(Oc5ccccc5)cc4)nn32)C1 (stereo not drawn) [Compound 184, 7-(1-(But-2-ynoyl)azetidin-3-yl)-2-(4-phenoxyphenyl)-4,5,6,7-tetrahydropyrazolo-[1,5-a]pyrimidine-3-carboxamide] | 
14 | 10.3 | CCC#CC(=O)N1CCC([C@@H]2CCNc3c(C(N)=O)c(-c4ccc(Oc5ccccc5)cc4)nn32)CC1 [Compound 186, (S)-7-(1-(Pent-2-ynoyl)piperidin-4-yl)-2-(4-phenoxyphenyl)-4,5,6,7-tetrahydropyrazolo-[1,5-a]pyrimidine-3-carboxamide] | 
15 | 8.5 | CN(C)CC#CC(=O)N1CCC([C@@H]2CCNc3c(C(N)=O)c(-c4ccc(Oc5ccccc5)cc4)nn32)CC1 [Compound 188, (S)-7-(1-(4-(Dimethylamino)but-2-ynoyl)piperidin-4-yl)-2-(4-phenoxyphenyl)-4,5,6,7-tetrahydropyrazolo-[1,5-a]pyrimidine-3-carboxamide] | 
16 | 2 | C=CC(=O)Nc1ccccc1C1CCNc2c(C(N)=O)c(-c3ccc(F)c(Cl)c3)nn21 (stereo not drawn) [Compound 196, 7-(2-Acrylamidophenyl)-2-(3-chloro-4-fluorophenyl)-4,5,6,7-tetrahydropyrazolo-[1,5-a]pyrimidine-3-carboxamide] | 
